# Data reported in patent publication US20240417435A1, “DEFENSIN-DERIVED PEPTIDE WITH ANTIBACTERIAL ACTIVITY ALSO AGAINST MULTI-ANTIBIOTIC-RESISTANT BACTERIA” (priority 2021, published 2024).
# Where a SMILES comes first, the peptide text is derived from it.
# Columns and labels:
# [1] = tested on: P. aeruginosa MDR strain 2; type: cell-based, Pseudomonas aeruginosa
# Description: (§1) The antimicrobial activity of peptide γ2 was evaluated versus Pseudomonas aeruginosa ATCC 27853, Escherichia coli ATCC 13762 and Staphylococcus aureus ATCC 6538, and versus multidrug-resistant (MDR) clinical isolates of Methicillin-Resistant Staphylococcus aureus (MRSA), extended-spectrum β-lactamase (ESBL)-producing E. coli, P. aeruginosa and Acinetobacter baumannii complex. The isolates were identified by mass spectrometry using the MALDI (matrix-assisted laser desorption/ionisation) mass spectrometer and the biochemical phenotyping method in a VITEKR 2 bioMérieux system (bioMérieux Italia S.p.a., Bagno a Ripoli, Florence, Italy), according to the manufacturer's instructions. The antibiotic susceptibility profile was evaluated with the VITEKR 2 bioMérieux System. The microorganisms were cultured in broth and agar at 37° C. The media used were BD Brain Heart Infusion broth (BHI) (BD, Franklin Lakes, NJ, USA) and BHI agar (OXOID, Basingstoke, Hampshire, UK), BD Trypticase Soy agar with 5% sheep's blood and MacConkey agar (OXOID, Basingstoke, Hampshire, UK). The isolates were stored frozen at −80° C. in BHI broth supplemented with 10% (v/v) glycerol (Carlo Erba Reagents, Milan, Italy) until use, and the work cultures were activated in the respective broths at 37° C. for 15-18 h.
# (§2) Assays of the antibacterial activity of peptide γ2, in both reduced and oxidised form, were conducted against P. aeruginosa ATCC 27853, E. coli ATCC 13762, S. aureus ATCC 6538 and MDR clinical isolates. The strains were cultured under aerobic conditions in BHI broth at 37° C. and incubated with peptide γ2 for 2 hours at 37° C. Various concentrations of peptide were used, ranging from 1 μM to 128 μM. Each test was conducted in triplicate with three independent cultures. The minimum inhibitory concentration (MIC) and the minimum bactericidal concentration (MBC) of the peptide were determined with a modified version of the Clinical and Laboratory Standards Institute broth microdilution assay, using a final inoculum concentration of 10^5 CFU/ml, as previously described (Scudiero O et al., Antimicrob Agents Chemother 2010; 54:2312-22; Scudiero O et al. Antimicrob Ag Chemother 2013; 57:1701-8).
# (§3) The MIC is indicated by the concentration interval, which comprise the upper growth limit and the first concentration which could not support visible bacterial growth after incubation. The MBC was defined as the lowest concentration at which no viable colonies were observed. The peptide concentrations were 128.0, 64.0, 32.0, 16.0, 8.0, 4.0, 2.0 and 1 μM. For the time-kill studies against the ATCC and MDR strains, the bacteria were cultured in BHI broth until the late log growth phase at 37° C. The bacterial suspensions, containing about 10^6 CFU/ml (adjusted by the spectrophotometer to OD600 nm), were diluted 1:100 in PBS1× and then incubated at 37° C. with or without the peptide, selected at concentrations corresponding to 1, 2 and 4×MIC (as determined above). At baseline and 1, 2, 3 and 5 hours after incubation, a portion of each sample was harvested, diluted in series in PBS1× and seeded on BHI agar. The plates were incubated for […] at 37° C., and the viable bacteria count was conducted by the CFU method. All the data were expressed as mean±SD of three independent experiments.
# [2] = tested on: P. aeruginosa MDR strain 1; type: cell-based, Pseudomonas aeruginosa
# Description: as §1, §2, §3
# [3] = tested on: P. aeruginosa ATCC 27853; type: cell-based, Pseudomonas aeruginosa
# Description: as §1, §2, §3
# [4] = tested on: P. aeruginosa MDR 2 strain; test: In vitro time-kill kinetics assay; type: cell-based, Pseudomonas aeruginosa
# Description: as §3
# [5] = tested on: P. aeruginosa ATCC 27853; test: In vitro time-kill kinetics assay; type: cell-based, Pseudomonas aeruginosa
# Description: as §3
# [6] = tested on: E. coli ESBL strain 1; type: cell-based, Escherichia coli
# Description: as §1, §2, §3
# [7] = tested on: E. coli ATCC 13762; type: cell-based, Escherichia coli
# Description: as §1, §2, §3
# [8] = tested on: E. coli ESBL strain 2; type: cell-based, Escherichia coli
# Description: as §1, §2, §3
# [9] = tested on: A. baumannii MDR strain 1; type: cell-based, Acinetobacter baumannii complex
# Description: as §1, §2, §3
# [10] = tested on: A. baumannii MDR strain 2; type: cell-based, Acinetobacter baumannii complex
# Description: as §1, §2, §3
# [11] = tested on: A. baumannii MDR 2; test: In vitro time-kill kinetics assay; type: cell-based, Acinetobacter baumannii complex
# Description: as §3
# [12] = tested on: S. aureus ATCC 6538 (ATCC reference strain); test: In vitro time-kill kinetics assay; type: cell-based, Staphylococcus aureus; details: peptide at MIC, after 2 hours' incubation
# Description: as §3
# [13] = tested on: MRSA strains; test: In vitro time-kill kinetics assay; type: cell-based, Staphylococcus aureus; details: all MRSA strains; peptide at MIC; after 2 hours' incubation, throughout observation period
# Description: as §3
smiles,measurement,setting,value
CC[C@H](C)[C@H](NC(=O)[C@H](CCC(N)=O)NC(=O)[C@H](CCCNC(=N)N)NC(=O)[C@H](CCCNC(=N)N)NC(=O)[C@H](CCCCN)NC(=O)[C@@H]1CCCN1C(=O)[C@H](CC(C)C)NC(=O)[C@H](CS)NC(C)=O)C(=O)NCC(=O)N[C@@H](CCCCN)C(=O)N[C@@H](CO)C(=O)N[C@@H](CO)C(=O)N[C@H](C(=O)N[C@@H](CCCNC(=N)N)C(=O)NCC(=O)N[C@@H](CCCNC(=N)N)C(=O)N[C@@H](CCCCN)C(=O)N[C@@H](CO)C(=O)N[C@@H](CS)C(=O)N[C@@H](CCCCN)C(=O)N[C@@H](CCCCN)C(N)=O)[C@@H](C)O [Reduced peptide γ2] (Ac-CLPKRRQIGKSSTRGRKSCKK-NH2),MBC,[1],1 µM
same,MIC,[1],1 µM
same,MBC,[2],64 µM
same,MBC,[3],1 µM
same,growth in time-kill assay,[4]; peptide at 2×MIC,no growth
same,growth and viability in time-kill assay,[4]; peptide at MIC only,"initial reduction in growth and viability in the first few hours of observation, whereas at longer times (5 and 7 h) a slight resumption in growth and viability"
same,growth in time-kill assay,[5]; peptide at 2×MIC,no growth
same,growth and viability in time-kill assay,[5]; peptide at MIC only,"initial reduction in growth and viability in the first few hours of observation, whereas at longer times (5 and 7 h) a slight resumption in growth and viability"
same,MBC,[6],2 µM
same,MIC,[6],2 µM
same,MBC,[7],2 µM
same,MIC,[7],2 µM
same,MBC,[8],16 µM
same,MIC,[8],2 µM
same,MBC,[9],64 µM
same,MIC,[10]; A. baumannii MDR strain 2,1 µM
same,MBC,[10]; MDR strain 2,1 µM
same,growth and viability in time-kill assay,[11]; after 2 hours' treatment,great reduction in growth and viability
same,growth and viability in time-kill assay,"[11]; longer observation times, even at 4×MIC",slight recovery of growth and viability
same,growth in time-kill assay,[12],total reduction in growth
same,growth in time-kill assay,[13],total reduction in growth
